This passage reports inhibition in vivo, Emax and EC50 results from patent publication US9168259B2 (GRÜNENTHAL GMBH, priority 2010, dated 2015).

In one assay the test system is rat. In words: Low-intensity tail flick test (rat). Format: in vivo. Conditions: po, peroral, MPE = % of maximum possible effect. The method, then:
Method II. Low-Intensity Tail Flick Test (Rat)
In the low-intensity tail flick test, the determination of the antinociceptive effect of the compounds according to the invention towards an acute noxious thermal stimulus is carried out by measuring the withdrawal reflex of the rat tail (tail flick) in response to a radiant heat beam (analgesia meter; model 2011 of the company Rhema Labortechnik, Hofheim, Germany) according to the method described by D'Amour and Smith (J. Pharm. Exp. Ther. 72, 74 79 (1941). To this end, the rats were placed in a plexiglass restrainer, and a low-intensity radiant heat beam (48° C.) was focused onto the dorsal surface of the tail root. The stimulus intensity was adjusted to result in a mean pre-drug control withdrawal latency of about 7 s, thus also allowing a supraspinal modulation of the spinally mediated acute nociceptive reflex. A cutoff time of 30 s was applied to avoid tissue damage. Male Sprague-Dawley rats (Janvier, Le Genest St. Isle, Frankreich) with weights of 200-250 g were used. 10 rats were used per group. Before administration of a compound according to the invention, the animals were pre-tested twice in the course of five minutes and the mean of these measurements was calculated as the pre-test mean. The antinociceptive effect was determined at 20, 40 and 60 min after peroral compound administration. The antinociceptive effect was calculated based on the increase in the tail withdrawal latency according to the following formula and is expressed as percentage of the maximum possible effect (MPE [%]): MPE=[(T1−T0)/(T2−T0)]*100
In this, T0 is the control latency time before and T1 the latency time after administration of the compound, T2 is the cutoff time and MPE is the maximum possible effect. Employing variant analysis (repeated measures ANOVA) allowed testing of statistically significant differences between the compounds according to the invention and the vehicle group. The significance level was set to p≦0.05. To determine the dose dependency, the particular compound according to the invention was administered in 3-5 logarithmically increasing doses, including a threshold dose and a maximum effective dose, and the ED50 values were determined with the aid of regression analysis. The ED50 calculation was performed at the time of maximum efficacy (usually 20 min after administration of the compounds).
For orientation: Hot-plate and tail-flick tests time the reaction to a heat stimulus.

The next assay deals with T1, KCNQ2/3 channels (Homo sapiens, UniProt O43525+O43526).
T1 construct: expressed in transfected cells
T1 sequence (O43526 whole entry): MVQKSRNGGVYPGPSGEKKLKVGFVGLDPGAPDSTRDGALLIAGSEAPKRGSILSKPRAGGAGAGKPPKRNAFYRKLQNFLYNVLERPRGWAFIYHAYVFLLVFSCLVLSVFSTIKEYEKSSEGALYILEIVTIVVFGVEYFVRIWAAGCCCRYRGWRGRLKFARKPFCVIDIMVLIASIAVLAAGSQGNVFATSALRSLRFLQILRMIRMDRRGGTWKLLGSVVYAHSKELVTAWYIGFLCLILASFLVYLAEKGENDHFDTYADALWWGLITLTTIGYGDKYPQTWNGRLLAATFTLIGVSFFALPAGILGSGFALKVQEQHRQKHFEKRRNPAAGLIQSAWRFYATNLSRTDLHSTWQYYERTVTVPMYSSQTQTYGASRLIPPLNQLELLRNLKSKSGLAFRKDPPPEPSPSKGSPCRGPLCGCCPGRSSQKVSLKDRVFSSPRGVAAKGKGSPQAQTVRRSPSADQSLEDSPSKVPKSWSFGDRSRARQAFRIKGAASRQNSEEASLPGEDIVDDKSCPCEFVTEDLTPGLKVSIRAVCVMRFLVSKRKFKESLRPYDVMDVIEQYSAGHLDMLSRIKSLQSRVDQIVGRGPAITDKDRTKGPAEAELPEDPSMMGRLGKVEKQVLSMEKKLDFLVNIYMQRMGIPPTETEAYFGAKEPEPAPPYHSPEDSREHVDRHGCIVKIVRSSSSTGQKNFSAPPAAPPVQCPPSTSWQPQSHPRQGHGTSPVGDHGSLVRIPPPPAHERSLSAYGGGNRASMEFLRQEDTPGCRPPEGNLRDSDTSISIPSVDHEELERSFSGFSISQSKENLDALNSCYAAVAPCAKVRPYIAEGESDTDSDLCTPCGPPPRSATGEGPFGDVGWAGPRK
T1 sequence (O43525 whole entry): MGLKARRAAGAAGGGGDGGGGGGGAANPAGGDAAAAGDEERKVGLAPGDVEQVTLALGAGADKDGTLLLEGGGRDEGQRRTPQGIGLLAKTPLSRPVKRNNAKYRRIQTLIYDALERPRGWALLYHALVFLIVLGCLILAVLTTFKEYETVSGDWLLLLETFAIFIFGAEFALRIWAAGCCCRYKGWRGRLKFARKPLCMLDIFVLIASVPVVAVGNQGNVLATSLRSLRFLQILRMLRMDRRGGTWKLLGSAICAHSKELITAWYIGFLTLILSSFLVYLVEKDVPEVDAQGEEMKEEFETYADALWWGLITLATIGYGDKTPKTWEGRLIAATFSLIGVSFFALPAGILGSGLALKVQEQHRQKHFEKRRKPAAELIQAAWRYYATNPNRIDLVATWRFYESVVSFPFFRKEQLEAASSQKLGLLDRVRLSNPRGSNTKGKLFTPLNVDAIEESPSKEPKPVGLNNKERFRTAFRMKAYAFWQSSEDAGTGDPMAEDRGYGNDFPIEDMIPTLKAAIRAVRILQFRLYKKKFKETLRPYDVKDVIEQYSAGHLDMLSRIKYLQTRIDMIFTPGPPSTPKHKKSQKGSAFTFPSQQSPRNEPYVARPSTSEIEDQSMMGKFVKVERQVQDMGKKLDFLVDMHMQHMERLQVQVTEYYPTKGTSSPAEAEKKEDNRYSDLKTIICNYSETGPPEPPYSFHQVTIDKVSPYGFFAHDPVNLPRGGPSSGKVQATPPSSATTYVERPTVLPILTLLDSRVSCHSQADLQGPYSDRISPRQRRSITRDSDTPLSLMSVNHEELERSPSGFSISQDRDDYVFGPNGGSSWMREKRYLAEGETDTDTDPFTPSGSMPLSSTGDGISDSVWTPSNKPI
In words: Fluorescence assay using a voltage sensitive dye (fluorimetry). Format: cell-based. Conditions: CHO-K1 cells expressing KCNQ2/3; for Emax: CHO-K1, plateau effect relative to saturated retigabine (50 μM) = 100%, negative values = antagonistic, read-out: Fluorimetry % efficacy (retigabine = 100%); for EC50: IC50 where % efficacy is negative, read-out: Fluorimetry EC50/IC50.

`CCSc1nc(N2CCOCC2)cc(C)c1C(=O)NCc1ccc(F)c(F)c1` [Example 41, N-[(3,4-Difluoro-phenyl)-methyl]-2-ethylsulfanyl-4-methyl-6-morpholin-4-yl-pyridine-3-carboxylic acid amide] returned an inhibition in vivo at 6.81 mg/kg with rat (dose 6.81 mg/kg) of 92%. In addition, on KCNQ2/3 channels, the Emax came to 169% and the EC50 came to 69 nM.
In the assay with rat, `CCSc1nc(N2CCOCC2)cc(C)c1C(=O)NCCCC(C)(C)C` [Example 67, N-(4,4-Dimethyl-pentyl)-2-ethylsulfanyl-4-methyl-6-morpholin-4-yl-pyridine-3-carboxylic acid amide] showed an inhibition in vivo at 10 mg/kg of 100%. For the same molecule, at KCNQ2/3 channels, the Emax was determined as 244% and the EC50 came to 42 nM.
For `CCSc1nc(N2CCOCC2)cc(C)c1C(=O)NCCCC(C)C` [Example 79, 2-Ethylsulfanyl-4-methyl-N-(4-methyl-pentyl)-6-morpholin-4-yl-pyridine-3-carboxylic acid amide] the same measures were 46%, 215% and 206 nM.

A word on the inhibition in vivo: it is the drop in the measured response relative to a control, in per cent. Lower therefore signals a response near the control.
